One experiment addresses T1, human σ2/TMEM97 receptor (Homo sapiens, UniProt Q5BJF2).
T1 construct: expressed in transfected cells; host or cells: HEK-293
The experiment in a line: Binding assay to human σ2/TMEM97 receptor ([3H]-DTG, transfected HEK-293 membranes). Particulars: class scale, read-out: Binding σ-2 Ki. In outline:
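Membranes (15 μg) from transfected HEK-293 incubated 120 min at 25 °C with 10 nM [3H]-DTG in 50 mM Tris-HCl pH 8.0; nonspecific binding with 10 μM haloperidol. Filtration and scintillation counting; % inhibition at 1 or 10 μM, or Ki from five concentrations.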

A further experiment deals with T2, human σ1 receptor (Homo sapiens, UniProt Q99720).
T2 construct: expressed in transfected cells; host or cells: HEK-293
T2 sequence (Q99720 whole entry): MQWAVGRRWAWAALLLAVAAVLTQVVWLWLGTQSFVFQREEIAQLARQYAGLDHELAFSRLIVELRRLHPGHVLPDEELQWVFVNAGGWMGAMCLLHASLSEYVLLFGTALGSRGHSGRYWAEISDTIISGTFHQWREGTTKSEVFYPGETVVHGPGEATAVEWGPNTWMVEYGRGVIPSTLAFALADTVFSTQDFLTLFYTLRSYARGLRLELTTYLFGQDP
The experiment in a line: Human σ1 receptor radioligand assay ([3H](+)-pentazocine, transfected HEK-293 membranes). Particulars: class scale, read-out: Binding σ-1 Ki. In outline: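 Membranes (7 μg) from transfected HEK-293 cells were incubated with 5 nM [3H](+)-pentazocine in 50 mM Tris-HCl, pH 8, for 120 minutes at 37° C, with 10 μM haloperidol defining non-specific binding. Bound radioactivity was filtered and counted by scintillation. Results are % inhibition at 1 or 10 μM or Ki from five concentrations.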

Experiment [1] relates to mechanical hypersensitivity. The note with it: SNI mice model of neuropathic pain; cited from earlier work.
Another experiment addresses sigma-2 (σ2) site (Homo sapiens, UniProt Q5BJF2). The note with it: background statement; cited from earlier work.

T1 sequence (Q5BJF2 whole entry): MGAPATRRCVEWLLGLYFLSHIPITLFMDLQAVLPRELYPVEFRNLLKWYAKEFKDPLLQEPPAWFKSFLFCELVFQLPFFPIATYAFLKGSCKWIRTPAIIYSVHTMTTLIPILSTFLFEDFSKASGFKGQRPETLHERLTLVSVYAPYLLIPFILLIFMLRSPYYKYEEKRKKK
Chain of sigma-2 (σ2) site (Q5BJF2 whole entry): as above

Take `Cc1cc(-c2nn(C)c(Cl)c2CC(=O)N2CCCC3(CCN(CCC(C)(C)C)CC3)C2)no1` [Example 214, 2-(5-Chloro-1-methyl-3-(5-methylisoxazol-3-yl)-1H-pyrazol-4-yl)-1-(9-(3,3-dimethylbutyl)-2,9-diazaspiro[5.5]undecan-2-yl)ethan-1-one]: the Ki on human σ2/TMEM97 receptor is below 100 nM; on human σ1 receptor it was 100 to 500 nM.

With `Cc1cc(-c2nn(C)c(Cl)c2CC(=O)NC2CCC3(CC2)CCN(CCC(C)(C)C)CC3)no1` [Example 215, 2-(5-Chloro-1-methyl-3-(5-methylisoxazol-3-yl)-1H-pyrazol-4-yl)-N-(3-(3,3-dimethylbutyl)-3-azaspiro[5.5]undecan-9-yl)acetamide], the Ki was below 100 nM at human σ2/TMEM97 receptor and 100 to 500 nM on human σ1 receptor.

Regarding `CCn1nc(-c2cc(C)on2)c(CC(=O)NC2CCC3(CC2)CCN(CCC(C)(C)C)CC3)c1Cl` [Example 216, 2-(5-Chloro-1-ethyl-3-(5-methylisoxazol-3-yl)-1H-pyrazol-4-yl)-N-(3-(3,3-dimethylbutyl)-3-azaspiro[5.5]undecan-9-yl)acetamide], the inhibitory constant (Ki) on human σ2/TMEM97 receptor and at human σ1 receptor was below 100 nM each time.

Take `CCn1nc(-c2cc(C)on2)c(CC(=O)N2CCCC3(CCN(CCC(C)(C)C)CC3)C2)c1Cl` [Example 217, 2-(5-Chloro-1-ethyl-3-(5-methylisoxazol-3-yl)-1H-pyrazol-4-yl)-1-(9-(3,3-dimethylbutyl)-2,9-diazaspiro[5.5]undecan-2-yl)ethan-1-one]: the inhibition constant (Ki) on human σ2/TMEM97 receptor was below 100 nM; on human σ1 receptor it was 100 to 500 nM.

Turning to `CCn1nc(-c2ccon2)c(CC(=O)N2CCCC3(CCN(CCC(C)(C)C)CC3)C2)c1Cl` [Example 218, 2-(5-Chloro-1-ethyl-3-(isoxazol-3-yl)-1H-pyrazol-4-yl)-1-(9-(3,3-dimethylbutyl)-2,9-diazaspiro[5.5]undecan-2-yl)ethan-1-one], the Ki on human σ2/TMEM97 receptor was below 100 nM; at human σ1 receptor it was above 1000 nM.

Turning to `CCn1nc(-c2ccon2)c(CC(=O)NC2CCC3(CC2)CCN(CCC(C)(C)C)CC3)c1Cl` [Example 219, 2-(5-Chloro-1-ethyl-3-(isoxazol-3-yl)-1H-pyrazol-4-yl)-N-(3-(3,3-dimethylbutyl)-3-azaspiro[5.5]undecan-9-yl)acetamide], the inhibitory constant (Ki) on human σ2/TMEM97 receptor was below 100 nM; on human σ1 receptor, 100 to 500 nM.

For `Cc1cc(-c2nn(C)c(Cl)c2CC(=O)NC2CCN(CCC(C)(C)C)CC2)no1` [Example 220, 2-(5-Chloro-1-methyl-3-(5-methylisoxazol-3-yl)-1H-pyrazol-4-yl)-N-(1-(3,3-dimethylbutyl)piperidin-4-yl)acetamide], the Ki at human σ2/TMEM97 receptor was below 100 nM; on human σ1 receptor, 100 to 500 nM.

`CCn1nc(-c2ccon2)c(CC(=O)NC2CCN(CCC(C)(C)C)CC2)c1Cl` [Example 221, 2-(5-Chloro-1-ethyl-3-(isoxazol-3-yl)-1H-pyrazol-4-yl)-N-(1-(3,3-dimethylbutyl)piperidin-4-yl)acetamide]: the inhibition constant (Ki) on human σ2/TMEM97 receptor and at human σ1 receptor was below 100 nM in each case.

On to `Cn1nc(-c2cccc(C(F)(F)F)n2)c(CC(=O)NC2CCN(CCC(C)(C)C)CC2)c1Cl` [Example 222, 2-(5-Chloro-1-methyl-3-(6-(trifluoromethyl)pyridin-2-yl)-1H-pyrazol-4-yl)-N-(1-(3,3-dimethylbutyl)piperidin-4-yl)acetamide], for which the inhibitory constant (Ki) on human σ2/TMEM97 receptor and on human σ1 receptor was below 100 nM in each case.

Regarding `CCn1nc(-c2cccc(C(F)(F)F)n2)c(CC(=O)NC2CCN(CCC(C)(C)C)CC2)c1Cl` [Example 223, 2-(5-chloro-1-ethyl-3-(6-(trifluoromethyl)pyridin-2-yl)-1H-pyrazol-4-yl)-N-(1-(3,3-dimethylbutyl)piperidin-4-yl)acetamide], the inhibition constant (Ki) on human σ2/TMEM97 receptor and on human σ1 receptor was below 100 nM in each case.

`CCn1nc(-c2ccon2)c(CC(=O)NC2CC3(CCN(CCC(C)(C)C)CC3)C2)c1Cl` [Example 224, 2-(5-chloro-1-ethyl-3-(isoxazol-3-yl)-1H-pyrazol-4-yl)-N-(7-(3,3-dimethylbutyl)-7-azaspiro[3.5]nonan-2-yl)acetamide]: the Ki was below 100 nM at human σ2/TMEM97 receptor and 100 to 500 nM at human σ1 receptor.

`CCn1nc(-c2cc(C)on2)c(CN2CC3(CCN(CCC(C)(C)C)CC3)CC2=O)c1Cl` [Example 225, 2-((5-Chloro-1-ethyl-3-(5-methylisoxazol-3-yl)-1H-pyrazol-4-yl)methyl)-8-(3,3-dimethylbutyl)-2,8-diazaspiro[4.5]decan-3-one]: the inhibitory constant (Ki) was below 100 nM at human σ2/TMEM97 receptor and 100 to 500 nM on human σ1 receptor.

`CCCn1nc(-c2cc(C)on2)c(CN2CC3(CCN(CCC(C)(C)C)CC3)CC2=O)c1Cl` [Example 226, 2-((5-Chloro-3-(5-methylisoxazol-3-yl)-1-propyl-1H-pyrazol-4-yl)methyl)-8-(3,3-dimethylbutyl)-2,8-diazaspiro[4.5]decan-3-one]: the results for the inhibition constant (Ki) on human σ2/TMEM97 receptor and at human σ1 receptor were below 100 nM and 100 to 500 nM, respectively.

As for `Cn1nc(-c2cccc(C(F)(F)F)n2)c(CN2CC3(CCN(CCC(C)(C)C)CC3)CC2=O)c1Cl` [Example 227, 2-((5-Chloro-1-methyl-3-(6-(trifluoromethyl)pyridin-2-yl)-1H-pyrazol-4-yl)methyl)-8-(3,3-dimethylbutyl)-2,8-diazaspiro[4.5]decan-3-one], the Ki on human σ2/TMEM97 receptor and on human σ1 receptor was below 100 nM each time.

Turning to `Cc1cccc(-c2nn(C)c(Cl)c2CN2CC3(CCN(CCC(C)(C)C)CC3)CC2=O)n1` [Example 228, 2-((5-Chloro-1-methyl-3-(6-methylpyridin-2-yl)-1H-pyrazol-4-yl)methyl)-8-(3,3-dimethylbutyl)-2,8-diazaspiro[4.5]decan-3-one], the inhibitory constant (Ki) at human σ2/TMEM97 receptor and on human σ1 receptor was 100 to 500 nM each time.

As for `CCn1nc(-c2cccc(C(F)(F)F)n2)c(CN2CC3(CCN(CCC(C)(C)C)CC3)CC2=O)c1Cl` [Example 229, 2-((5-Chloro-1-ethyl-3-(6-(trifluoromethyl)pyridin-2-yl)-1H-pyrazol-4-yl)methyl)-8-(3,3-dimethylbutyl)-2,8-diazaspiro[4.5]decan-3-one], the Ki on human σ2/TMEM97 receptor and on human σ1 receptor was below 100 nM each time.

On to `OCCCN1CCCC2CC1c1cc(-c3ccc(C(F)(F)F)cc3)ccc12` (stereo not shown) [UKH-1114], for which, in experiment [1], the “effect on mechanical hypersensitivity” value is recorded as “relieved mechanical hypersensitivity”.

Turning to (+)-SKF-10047, the “affinity for the sigma-2 (σ2) site” value on sigma-2 (σ2) site was “micromolar affinity”.

These data come from patent US20240239781A1, “1H-PYRAZOLE DERIVATIVES AS SIGMA LIGANDS” (ACONDICIONAMIENTO TARRASENSE, priority 2021, published 2024).
